Data as given in patent US12491220B2, “Compositions containing indole-derived metabolites and methods of use thereof” (Imvela Corp., priority 2024, dated 2025).

Key:
AhR [1] = target: T1, AhR (Homo sapiens, UniProt P35869); assay: AhR activation in human cell line expressing AhR, in vitro luminescence (Example 1); format: cell-based; details: 200 PM, FIG. 5, normalized to methylcholanthrene
T1 sequence (P35869 11-848): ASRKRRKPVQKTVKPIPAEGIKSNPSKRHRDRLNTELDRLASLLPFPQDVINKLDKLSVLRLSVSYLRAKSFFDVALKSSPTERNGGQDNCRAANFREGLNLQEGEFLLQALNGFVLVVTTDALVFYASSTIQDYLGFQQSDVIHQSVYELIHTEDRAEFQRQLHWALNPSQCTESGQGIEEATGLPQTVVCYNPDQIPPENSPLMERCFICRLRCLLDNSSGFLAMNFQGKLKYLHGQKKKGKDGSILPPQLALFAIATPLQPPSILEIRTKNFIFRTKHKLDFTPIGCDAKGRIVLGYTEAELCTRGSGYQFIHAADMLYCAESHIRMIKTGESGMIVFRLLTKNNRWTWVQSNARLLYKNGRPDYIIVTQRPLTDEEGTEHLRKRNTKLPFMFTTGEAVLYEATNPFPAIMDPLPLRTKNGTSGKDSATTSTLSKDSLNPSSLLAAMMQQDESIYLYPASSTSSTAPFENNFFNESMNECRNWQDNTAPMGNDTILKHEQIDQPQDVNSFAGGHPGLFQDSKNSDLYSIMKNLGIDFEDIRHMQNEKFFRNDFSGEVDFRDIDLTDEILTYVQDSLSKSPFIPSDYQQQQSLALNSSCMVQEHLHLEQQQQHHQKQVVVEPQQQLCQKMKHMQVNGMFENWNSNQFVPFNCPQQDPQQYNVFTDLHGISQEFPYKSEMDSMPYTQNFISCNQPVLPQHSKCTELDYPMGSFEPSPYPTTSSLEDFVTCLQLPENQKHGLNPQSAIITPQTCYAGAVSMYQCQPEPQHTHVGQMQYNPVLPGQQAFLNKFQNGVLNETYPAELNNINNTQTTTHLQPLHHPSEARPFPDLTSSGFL
Protocol: (§1) The utility of ILA and IAld in multiple host was validated by an in vitro assay. Human or canine cell lines expressing AhR were exposed to ILA or IAld at […], and AhR activation was assayed using in vitro luminescence.

AhR [2] = target: T2, AhR (Canis lupus familiaris, UniProt A0A8I3RSX6); assay: AhR activation in canine cell line expressing AhR, in vitro luminescence (Example 1); format: cell-based; details: 200 PM, FIG. 5, normalized to methylcholanthrene
T2 sequence (A0A8I3RSX6 1-853): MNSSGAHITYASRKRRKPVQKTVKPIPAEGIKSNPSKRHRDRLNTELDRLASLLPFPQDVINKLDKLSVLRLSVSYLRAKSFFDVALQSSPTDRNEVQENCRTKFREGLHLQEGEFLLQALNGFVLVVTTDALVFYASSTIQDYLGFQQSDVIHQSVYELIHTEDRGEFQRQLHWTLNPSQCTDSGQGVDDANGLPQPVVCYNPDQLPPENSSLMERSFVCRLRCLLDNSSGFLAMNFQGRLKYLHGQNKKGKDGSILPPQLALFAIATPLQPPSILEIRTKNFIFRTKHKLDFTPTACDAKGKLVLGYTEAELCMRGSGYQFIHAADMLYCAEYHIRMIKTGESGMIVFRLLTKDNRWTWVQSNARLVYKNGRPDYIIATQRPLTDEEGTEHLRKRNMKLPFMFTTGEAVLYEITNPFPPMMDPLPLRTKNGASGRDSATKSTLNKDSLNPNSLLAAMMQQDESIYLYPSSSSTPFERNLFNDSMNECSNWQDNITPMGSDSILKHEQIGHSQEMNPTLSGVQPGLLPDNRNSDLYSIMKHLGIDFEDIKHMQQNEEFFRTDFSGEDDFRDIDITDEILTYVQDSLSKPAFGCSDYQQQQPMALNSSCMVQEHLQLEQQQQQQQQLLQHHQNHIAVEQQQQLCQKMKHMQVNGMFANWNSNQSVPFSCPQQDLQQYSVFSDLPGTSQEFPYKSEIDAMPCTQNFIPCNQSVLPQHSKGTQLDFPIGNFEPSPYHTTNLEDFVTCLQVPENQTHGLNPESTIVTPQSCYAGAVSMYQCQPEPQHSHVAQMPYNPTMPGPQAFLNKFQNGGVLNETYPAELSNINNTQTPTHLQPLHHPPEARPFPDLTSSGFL
Protocol: as §1

Question: How did the AhR activation (AhR [1]) turn out when O=Cc1c[nH]c2ccccc12 [IAld, indole-3-carboxaldehyde] was run?
Answer: AhR activation was observed

Question: What about the AhR activation (AhR [2]) of the same compound?
Answer: AhR activation was observed

Question: What does the source list for O=C(O)C(O)Cc1c[nH]c2ccccc12 (stereo not shown) [ILA, indole-3-lactic acid]?
Answer: AhR activation (AhR [1]): AhR activation was observed; AhR activation (AhR [2]): AhR activation was observed
